Experimental data reported in patent US20040014797A1, “Pharmaceutical composition comprising metformin and a 5-phenoxyalkyl-2,4-thiazolidinedione-type derivative” (priority 2000, published 2004).

System: nOSTZ rat
Assay: Antidiabetic effect of the metformin and CRE16336 combination on the nOSTZ rat (glycaemia, insulinaemia, lacticaemia after 4 days of oral treatment)
Type: in vivo
Conditions: for Glucose / Insulin / Lactate: 4 days of oral treatment, blood from the tail 2 h after last administration, metformin 25 mg/kg and/or CRE16336 12.5 mg/kg; for Effect on the hyperglycaemia in the nOSTZ rats (in words): 4 days oral, metformin 25 mg/kg, CRE16336 12.5 mg/kg, alone or combined
Procedure: The antidiabetic effect of the metformin and CRE16336 combination was studied on the nOSTZ rat, an experimental model of non-insulin-dependent diabetes. This model is produced by intravenous injection of Streptozotocin (STZ) 100 mg/kg, on the day of birth. 38 male nOSTZ rats were used after selection based on the hyperglycaemia value after fasting for 2 h in order to homogenize the groups. […] a group treated with metformin at 25 mg/kg a group treated with CRE16336 at 12.5 mg/kg a group treated with metformin 25 mg/kg and CRE16336 12.5 mg/kg 5 male Wistar rats were incorporated into this study in order to evaluate the degree of hyperglycaemia in the diabetic animals. The products were administered orally in the morning between 8 am and 9 am, for 4 days.

| SMILES | Glucose [mg/dL] | Insulin [μU/ml] | Lactate [mg/dL] | Effect on the hyperglycaemia in the nOSTZ rats (in words) |
| --- | --- | --- | --- | --- |
| CN(C)C(=N)NC(=N)N [Metformin, 1,1-dimethylbiguanide] | 160 ± 5 | 34.1 ± 3.7 | 15.4 ± 1.4 | does not modify the hyperglycaemia |
| N#Cc1ccc(OCCC2SC(=O)NC2=O)cc1 (centres unmarked) [CRE16336, 5-[2-(4-cyanophenoxy)ethyl]thiazolidine-2,4-dione] | 156 ± 6 | 45.2 ± 5.5 | 13.2 ± 0.7 | does not modify the hyperglycaemia |
